“And” between values parts separate entries of the source, which are not always exact repeats. Equal entries are not always repeated.
System: transformation of CPP1 to CPP2 in pooled human serum
Assay: In vitro serum calcification propensity (T50) screening assay
Type: biochemical
Design: key to T50: T50 in minutes (time to 50% CPP phase transition)
Conditions: for T50: one value per experiment; for activity/unit mass: mean c350 x mw (Na salt); for concentration upon which a T50 of 350 min is reached (c350), mean: mean of n experiments; for concentration upon which a T50 of 350 min is reached (c350), single experiment: one value per experiment (lab journal reference E05-E40); for Concentration at T50 = 350 min mean ± s.d. (n) (c350): pooled human serum, 10 mM calcium, 6 mM phosphate, 37 °C
Protocol: The compounds were ranked for calcification inhibition activity using a nanoparticle-based test, developed for risk stratification, which measures the propensity for calcification in patient serum. […] The time, after which 50% of CPP phase transition occurred (T50), was assessed by time-resolved spectrophotometry at 550 nm (Supplementary Fig. 1a).
The screening assay was performed as described previously. In brief, pooled human serum (H4522, Sigma-Aldrich) stored at −20 °C was thawed at 37 °C, centrifuged (10,000 × g, and 4 °C, 30 min) (5427R, Eppendorf, Switzerland), and sterile filtered (0.22 μm filter, Millipore, Merck KGaA) to remove potential cryoprecipitates (cleared human serum). The calcium solution was 40 mM CaCl2 (102382, Merck KGaA) in HBS, pH 7.4 (RT) (100 mM HEPES (H3375, Sigma-Aldrich) and 140 mM NaCl (1734712, Fisher Scientific, Hampton, NH, USA)). […] All salt solutions and buffers were double sterile filtered (0.22 µm) and pre-warmed to 37 °C prior to use. […] The plate was sealed with an adhesive film and the absorption at 550 nm was measured every 3 min with 1 min in-between shaking for a total of 300 cycles at 37 °C using the infinite M200 microplate reader (Tecan, Männedorf, Switzerland). An A550 vs. time graph was generated and T50 (min) (time at half-maximum transition from CPP1 to CPP2) values were derived by sigmoidal curve fit using Prism 8 (nonlinear regression in the log(agonist) vs. response–variable slope (four parameter mode) using the robust fit fitting method, GraphPad Software, San Diego, CA, USA). Activities between compounds were compared by generating a T50 (min) vs. concentration (µM) graph, calculating nonlinear regression and deriving the concentration required to delay T50 to 350 min (c350) using a standard equation for the dose–response curve, Eq. (1), whereby x = [compound], y = time (min), bottom = baseline response, top = maximum response, T50 = [drug] that leads to half-maximum response, and the hill slope is a factor that describes the steepness of the curve.1 y= bottom+top - bottom/1+T50/x^hillslope.

For `COCCOCCO[C@@H]1[C@@H](OP(=O)(O)O)[C@H](OP(=O)(O)O)[C@@H](OP(=O)(O)O)[C@@H](OP(=O)(O)O)[C@H]1OP(=O)(O)O` (racemic) [OEG2-IP5, (±)-6-O-(methoxy-diethyleneglycol)-myo-inositol-1,2,3,4,5-pentakis(phosphate)], the T50 (concentration 0.3 μM) was 233.1 and 222.8 and 210.3, the T50 (concentration 1 μM) was 261.7 and 258.567 and 225.033 and the T50 (concentration 3 μM) was 295.2 and 270.867 and 244.067. For the same molecule, the T50 (concentration 10 μM) was 440.033 and 391.7 and 340.167, the activity/unit mass was 7.10 mg/L and the “concentration upon which a T50 of 350 min is reached (c350), mean” value (shortened to “concentration upon which a T50 … mean”) was 7.9 µM. The “concentration upon which a T50 of 350 min is reached (c350), single experiment” value was 5.5 µM and 7.4 µM and 10.7 µM, the “Concentration at T50 = 350 min mean ± s.d. (n) (c350)” value (“Concentration … (n) (c350)” for short) was 7.9 ± 2.7 (3) µM and 7.1 ± 2.4 (3) mg/L and the “Concentration … (n) (c350)” value (listed as (±)-4-O-(methoxy-diethyleneglycol)-myo-inositol-1,2,3,5,6-pentakis(phosphate)) was 7.9 ± 2.7 µM and 7.1 ± 2.4 mg/L. The c350 (unit not printed in the sentence (equals mg/L column of rebuttal Table 1)) was 7.1 ± 2.4.

In the case of `COCCOCCOCCOCCOCCOCCOCCO[C@H]1[C@H](OP(=O)(O)O)[C@H](OCCOCCOCCOCCOCCOCCOCCOC)[C@H](OP(=O)(O)O)[C@@H](OCCOCCOCCOCCOCCOCCOCCOC)[C@@H]1OP(=O)(O)O` [(OEG7)3-IP3, 2,4,6-Tri-O-(methoxy-heptaethyleneglycol)-myo-inositol-1,3,5-tris(phosphate)], the T50 (concentration 1 μM) is reported as 258.7 and 237.667 and 205.767, the T50 (concentration 3 μM) is reported as 289.967 and 270.1 and 251.367 and the T50 (concentration 5 μM) is reported as 303.667 and 291.2 and 260.633. For the same molecule, the T50 (concentration 10 μM) was 364.467 and 352.533 and 355.7, the activity/unit mass was 14.33 mg/L and the “concentration upon which a T50 … mean” value was 9.4 µM. For the same molecule, the “concentration upon which a T50 of 350 min is reached (c350), single experiment” value was 8.7 µM and 9.8 µM and the “Concentration … (n) (c350)” value was 9.4 ± 0.6 (3) µM and 14.3 ± 1.0 (3) mg/L.

In the case of `COCCOCCOCCOCCOCCOCCOCCO[C@@H]1[C@@H](OP(=O)(O)O)[C@H](OCCOCCOCCOCCOCCOCCOCCOC)[C@@H](OP(=O)(O)O)[C@@H](OP(=O)(O)O)[C@H]1OP(=O)(O)O` [(OEG7)2-IP4, 4,6-Di-O-(methoxy-heptaethyleneglycol)-myo-inositol-1,2,3,5-tetrakis(phosphate)], the T50 (concentration 0.3 μM) is reported as 217.433 and 203.2 and 207.5, the T50 (concentration 1 μM) is reported as 243.55 and 226.667 and 233.367 and the T50 (concentration 3 μM) is reported as 297.4 and 271.533 and 282.8. For the same molecule, the T50 (concentration 10 μM) was 754.35 and 624.433 and 692.333, the activity/unit mass was 5.96 mg/L and the “concentration upon which a T50 … mean” value was 4.5 µM. The “concentration upon which a T50 of 350 min is reached (c350), single experiment” value was 4.1 µM and 4.9 µM and 4.5 µM and the “Concentration … (n) (c350)” value was 4.5 ± 0.4 (3) µM and 6.0 ± 0.6 (3) mg/L.

With `O=P(O)(O)O[C@@H]1[C@H](OP(=O)(O)O)[C@H](OP(=O)(O)O)[C@@H](O)[C@H](OP(=O)(O)O)[C@H]1OP(=O)(O)O` [IP5, myo-Inositol-1,2,3,5,6-pentakisphosphate] the T50 (concentration 1 μM) was 220.367 and 229.167 and 217.95, the T50 (concentration 3 μM) was 240.433 and 226.567 and the T50 (concentration 10 μM) was 286.067 and 304.933 and 322.1. The T50 (concentration 15 μM) was 373.933, the T50 (concentration 30 μM) was 702.867 and 723.533 and 709.1 and the “concentration upon which a T50 … mean” value was 13.2 µM. The “concentration upon which a T50 of 350 min is reached (c350), single experiment” value was 14.6 µM and 12.1 µM and 12.9 µM and the “Concentration … (n) (c350)” value was 13.2 ± 1.3 (3) µM and 10.5 ± 1.0 (3) mg/L.

In the case of `O=P(O)(O)O[C@@H]1[C@@H](O)[C@H](OP(=O)(O)O)[C@@H](OP(=O)(O)O)[C@H](O)[C@@H]1OP(=O)(O)O` [IP4, myo-Inositol-2,3,5,6-tetrakisphosphate], the T50 (concentration 1 μM) is reported as 211 and 218.833 and 216.333, the T50 (concentration 3 μM) is reported as 225 and 236 and 231.367 and the T50 (concentration 10 μM) is reported as 262.033 and 281.067 and 280.633. For the same molecule, the T50 (concentration 30 μM) was 466.533 and 430.4 and 481.633, the T50 (concentration 50 μM) was 774.233 and 614.5 and 810.35 and the “concentration upon which a T50 … mean” value was 19.5 µM. The “concentration upon which a T50 of 350 min is reached (c350), single experiment” value was 20.1 µM and 19.8 µM and 18.8 µM and the “Concentration … (n) (c350)” value was 19.5 ± 0.7 (3) µM and 13.2 ± 0.5 (3) mg/L.

`O=C([O-])CC(O)(CC(=O)[O-])C(=O)[O-].O=C([O-])CC(O)(CC(=O)[O-])C(=O)[O-].[Mg+2].[Mg+2].[Mg+2]` [Mg citrat] was tested, and the activity/unit mass was 21.44 mg/L and the “concentration upon which a T50 … mean” value was over 100 µM.

With `O=P1(O)OP(=O)(O)O[C@H]2[C@@H](O1)[C@@H]1OP(=O)(O)OP(=O)(O)O[C@H]1[C@@H]1OP(=O)(O)OP(=O)(O)O[C@@H]21` (racemic) [ITPP, myo-inositol trispyrophosphate] the T50 (concentration 1 μM) was 193.4 and 250.1 and 242.3 and 298, the T50 (concentration 3 μM) was 191.467 and 273.733 and 236.7 and 299.7 and the T50 (concentration 10 μM) was 194.6 and 250.333 and 260.467 and 308.2. For the same molecule, the T50 (concentration 30 μM) was 200.233 and 253.8 and 260.967, the T50 (concentration 50 μM) was 203.167 and the T50 (concentration 100 μM) was 274.033 and 292.433. For the same molecule, the activity/unit mass was 60.60 mg/L, the “concentration upon which a T50 … mean” value was over 100 µM and the “Concentration … (n) (c350)” value was >100 (4) µM and >60.6 (4) mg/L.

For `COCCOCCOCCOCCOCCOCCOCCOCCOCCOCCOCCOCCO[C@@H]1[C@@H](OP(=O)(O)O)[C@H](OP(=O)(O)O)[C@@H](OP(=O)(O)O)[C@@H](OP(=O)(O)O)[C@H]1OP(=O)(O)O` (racemic) [OEG12-IP5, (±)-6-O-(methoxy-dodecaethyleneglycol)-myo-inositol-1,2,3,4,5-pentakis(phosphate)], the T50 (concentration 0.246 μM) was 217.233 and 225.267, the T50 (concentration 0.82 μM) was 258.4 and 206.7 and 222.1 and 217.5 and 256.667 and the T50 (concentration 1.6 μM) was 275.15 and 220.7. The T50 (concentration 2.46 μM) was 260.5 and 282.167, the T50 (concentration 4.1 μM) was 332.45 and 282.35 and 325.75 and 315.4 and 340 and the T50 (concentration 8.2 μM) was 493.7 and 442.3 and 481.45 and 498.1 and 499.967. The activity/unit mass was 6.58 mg/L, the “concentration upon which a T50 … mean” value was 4.9 µM and the “concentration upon which a T50 of 350 min is reached (c350), single experiment” value was 6.0 µM and 4.6 µM and 4.9 µM and 4.4 µM. The “Concentration … (n) (c350)” value was 4.9 ± 0.6 (5) µM and 6.6 ± 0.9 (5) mg/L.

magnesium citrate was tested, and the T50 (concentration 1 μM) was 196.233 and 242.1 and 288.4, the T50 (concentration 3 μM) was 190.533 and 253.267 and 289.2 and the T50 (concentration 10 μM) was 197.533 and 253.867 and 304.8. For the same molecule, the T50 (concentration 30 μM) was 198.933 and 273.433 and 307.3, the T50 (concentration 100 μM) was 228.767 and 304.4 and 351.8 and the “Concentration … (n) (c350)” value was >100 (3) µM and >21.4 (3) mg/L.

`COCCOCCOCCOCCOCCOCCOCCO[C@@H]1[C@@H](OP(=O)(O)O)[C@H](OP(=O)(O)O)[C@@H](OP(=O)(O)O)[C@@H](OP(=O)(O)O)[C@H]1OP(=O)(O)O` (racemic) [OEG7-IP5, (±)-6-O-(methoxy-heptaethyleneglycol)-myo-inositol-1,2,3,4,5-pentakis(phosphate)] was tested, and the T50 (concentration 0.3 μM) was 220.667 and 225.7 and 210.2, the T50 (concentration 1 μM) was 229.7 and 230.533 and 222.7 and the T50 (concentration 3 μM) was 271.4 and 260.7 and 241.467. The T50 (concentration 10 μM) was 480.067 and 432.633 and 427.367, the activity/unit mass was 7.56 mg/L and the “concentration upon which a T50 … mean” value was 6.7 µM. The “concentration upon which a T50 of 350 min is reached (c350), single experiment” value was 5.8 µM and 6.8 µM and 7.6 µM and the “Concentration … (n) (c350)” value was 6.7 ± 0.9 (3) µM and 7.6 ± 1.0 (3) mg/L.

Source: article PMC7002685, “Inhibition of vascular calcification by inositol phosphates derivatized with ethylene glycol oligomers” (Nature Communications, 2020)
